# Test results reported in PMC9728307 (Journal of Microbiology and Biotechnology, 2020).
# Where a name gives a salt, the structure may show the parent alone. Read-outs that look alike come from different tables or passages of the source. *1 amine or outer side, *2 acyl side, *3 side chain or, on linkers, in order; H or OH if unused. Where a SMILES comes first, the peptide text is derived from it. Bridges are numbered along the chain shown (N, C = ends). [ ]: non-standard residue; d: D form. The star is where a group is joined. hTyr(3S-OH,4S-OH,3'-OSO3H) = N[C@H](C(=O)O)[C@H](O)[C@@H](O)c1ccc(O)c(OS(=O)(=O)O)c1; Orn(4R-OH,5R-OH) = O=C([C@H](C[C@@H](O)[C@@H](O)N[*:3])N[*:1])[*:2]; Pro(3S-OH,4S-Me) = C[C@H]1CN[C@H](C(=O)O)[C@H]1O; X1 = CCCCCOc1ccc(-c2cc(-c3ccc(C(=O)*)cc3)no2)cc1; Gln(3R-OH) = NC(=O)C[C@@H](O)[C@H](N)C(=O)O; Hyp = O=C(O)[C@@H]1C[C@@H](O)CN1
# Legend:
# Vero cells = conditions: read-out: CC50 cell toxicity, MTS, no virus, compounds from secondary screening
# SARS-CoV-2 [1] = assay: microbe, parasite or virus in culture; assay type: cell-based; conditions: for Selectivity Index (SI): CC50/IC50
# in vitro = conditions: African green monkey, CC50 cell toxicity
# SARS-CoV-2 [2] = assay type: cell-based; conditions: Vero cells, 20 μM, MOI 0.5, three days after infection, microscopic observation
# SARS-CoV-2 [3] = assay: Viral RNA by real-time RT-PCR with primer sets specific to N gene; assay type: cell-based; conditions: virus-infected cells treated with drug
# Method: Bromhexine hydrochloride is an inhibitor of TMPRSS2, a cofactor of SARS-CoV-2 entry, and one group reported that the drug was effective on COVID-19 patients in a clinical trial. To further investigate whether bromhexine hydrochloride could inhibit SARS-CoV-2 replication, viral RNA was measured by real-time RT-PCR using primer sets specific to N gene of SARS-CoV-2.
# Fig. 4 Suppression of SARS-CoV-2 replication by bromhexine hydrochloride. Cellular RNAs were isolated from cells infected by SARS-COV-2 and treated with bromhexine hydrochloride. The level of viral RNA was measured by real-time RT-PCR using primer sets specific to N gene of SARS-CoV-2.
# [4] = Vero cells, MOI 2, 24 h post-infection, compounds from secondary screening, 0.08–50 μM, read-out: IC50 antiviral activity
# [5] = compounds from secondary screening
# [6] = Severe acute respiratory syndrome coronavirus 2, Vero, 24 h, Vero cells, MOI 2, 24 h post-infection, compounds from secondary screening, 0.08–50 μM, read-out: IC50 antiviral activity
# [7] = Vero cells, MTS, no virus, compounds from secondary screening
# [8] = Severe acute respiratory syndrome coronavirus 2, Vero, 24 h, read-out: IC50 antiviral activity
# [9] = Vero cells, MTS, no virus, compounds from primary screening
# [10] = compounds from primary screening
# [11] = Severe acute respiratory syndrome coronavirus 2, Vero, 24 h, Vero cells, MOI 2, 24 h post-infection, compounds from primary screening, 100 μM to 0.16 μM, read-out: IC50 antiviral activity
compound,measurement,setting,value
C=C[C@@]1(C)CC(=O)[C@]2(O)[C@@]3(C)[C@@H](O)CCC(C)(C)[C@@H]3[C@H](OC(=O)CCN(C)C)[C@H](OC(C)=O)[C@@]2(C)O1 [NKH 477],CC50,Vero cells,> 50 µM
same,IC50,SARS-CoV-2 [1]; [4],12.7 µM
CC(C)N(CCCCOCC(=O)NS(C)(=O)=O)c1cnc(-c2ccccc2)c(-c2ccccc2)n1 [Selexipag],CC50 at 24 h,in vitro,> 50 µM
same,Selectivity Index (SI),SARS-CoV-2 [1]; [5],>5.9
same,IC50,SARS-CoV-2 [1]; [6],8.5 µM
COC(=O)[C@H]1[C@H]2C[C@@H]3c4[nH]c5cc(OC)ccc5c4CCN3C[C@H]2C[C@@H](OC(=O)c2cc(OC)c(OC)c(OC)c2)[C@@H]1OC [Reserpine],CC50 at 24 h,in vitro; [7],> 50 µM
same,Selectivity Index (SI),SARS-CoV-2 [1]; [5],>1.7
same,IC50,SARS-CoV-2 [1]; [6],29.2 µM
CN(C)C(=O)C(CCN1CCC(O)(c2ccc(Cl)cc2)CC1)(c1ccccc1)c1ccccc1 [Loperamide hydrochloride],CC50 at 24 h,in vitro; [7],> 50 µM
CC[C@H]1CN2CC[C@H]1C[C@@H]2[C@@H](O)c1ccnc2ccc(OC)cc12 [hydroquinidine],CC50 at 24 h,in vitro; [7],> 50 µM
same,Selectivity Index (SI),SARS-CoV-2 [1]; [5],>2.1
same,IC50,SARS-CoV-2 [1]; [6],23.8 µM
CCN(CC)C(C)CN1c2ccccc2Sc2ccccc21 (centres unmarked) [Ethopropazine hydrochloride],CC50 at 24 h,in vitro; [7],> 50 µM
same,Selectivity Index (SI),SARS-CoV-2 [1]; [5],>2.5
same,IC50,SARS-CoV-2 [1]; [6],20.3 µM
Cc1ccc(NC(=O)c2ccc(CN3CCN(C)CC3)cc2)cc1Nc1nc(-c2cccnc2)cs1 [Masitinib],CC50 at 24 h,in vitro; [7],47.1 µM
same,Selectivity Index (SI),SARS-CoV-2 [1]; [5],3.2
same,IC50,SARS-CoV-2 [1]; [8],14.9 µM
"CCCCCOc1ccc(-c2cc(-c3ccc(C(=O)N[C@H]4C[C@@H](O)[C@@H](O)NC(=O)[C@@H]5[C@@H](O)[C@@H](C)CN5C(=O)[C@H]([C@H](O)CC(N)=O)NC(=O)[C@H]([C@H](O)[C@@H](O)c5ccc(O)c(OS(=O)(=O)O)c5)NC(=O)[C@@H]5C[C@@H](O)CN5C(=O)[C@H]([C@@H](C)O)NC4=O)cc3)no2)cc1 [Micafungin] (X1-[Orn(4R-OH,5R-OH)]T[Hyp][hTyr(3S-OH,4S-OH,3'-OSO3H)][Gln(3R-OH)][Pro(3S-OH,4S-Me)]; lactam 1-C)",CC50 at 24 h,in vitro; [9],> 100 µM
same,CC50 at 24 h,in vitro; [7],> 50 µM
same,Selectivity Index (SI),SARS-CoV-2 [1]; [10],>18.1
same,Selectivity Index (SI),SARS-CoV-2 [1]; [5],>3.9
same,IC50,"SARS-CoV-2 [1]; Severe acute respiratory syndrome coronavirus 2, Vero, 24 h, read-out: IC50 antiviral activity, Vero cells, MOI 2, 24 h post-infection, compounds from primary screening, 100 μM to 0.16 μM",5.5 µM
same,IC50,"SARS-CoV-2 [1]; Severe acute respiratory syndrome coronavirus 2, Vero, 24 h, read-out: IC50 antiviral activity, Vero cells, MOI 2, 24 h post-infection, compounds from secondary screening, 0.08–50 μM",12.9 µM
CCC(CC)COC(=O)[C@H](C)N[P@](=O)(OC[C@H]1O[C@@](C#N)(c2ccc3c(N)ncnn23)[C@H](O)[C@@H]1O)Oc1ccccc1 [Remdesivir],CC50 at 24 h,in vitro; [9],> 100 µM
same,CC50 at 24 h,in vitro; [7],> 50 µM
same,Selectivity Index (SI),SARS-CoV-2 [1]; [10],>20
same,Selectivity Index (SI),SARS-CoV-2 [1]; [5],>10
same,IC50,"SARS-CoV-2 [1]; Severe acute respiratory syndrome coronavirus 2, Vero, 24 h, Vero cells, 2 MOI, 24 h post-infection, calibration of the assay with reference compound (Fig. 1), read-out: IC50 antiviral activity",6 µM
same,IC50,SARS-CoV-2 [1]; [11],5 µM
same,IC50,SARS-CoV-2 [1]; [6],5 µM
same,Inhibition of viral CPE,SARS-CoV-2 [2],complete absence of CPE
CCOC(=O)C1=C[C@]2(CC)CCCN3CCc4c(n1c1ccccc41)[C@@H]32 [Vinpocetine],CC50 at 24 h,in vitro; [7],> 50 µM
same,Selectivity Index (SI),SARS-CoV-2 [1]; [5],>5.8
same,IC50,SARS-CoV-2 [1]; [6],8.6 µM
O=C(CCCl)NCc1ccccc1 [Beclamide],CC50 at 24 h,in vitro; [9],> 100 µM
same,Selectivity Index (SI),SARS-CoV-2 [1]; [10],>1.4
same,IC50,SARS-CoV-2 [1]; [8],72 µM
CC1=NN(c2ccc(C)c(C)c2)C(=O)/C1=N\Nc1cccc(-c2cccc(C(=O)O)c2)c1O [Eltrombopag],CC50 at 24 h,in vitro; [7],43.8 µM
same,Selectivity Index (SI),SARS-CoV-2 [1]; [5],21.9
same,IC50,SARS-CoV-2 [1]; [6],2 µM
CCCCc1nc(Cl)c(CO)n1Cc1ccc(-c2ccccc2-c2nn[nH]n2)cc1 [Losartan],CC50 at 24 h,in vitro; [9],> 100 µM
same,Selectivity Index (SI),SARS-CoV-2 [1]; [10],>1.4
same,IC50,SARS-CoV-2 [1]; [11],72 µM
C=C[C@H]1C[N@@]2CC[C@H]1C[C@@H]2[C@@H](O)c1ccnc2ccc(OC)cc12 [Quinidine gluconate],CC50 at 24 h,in vitro; [7],> 50 µM
same,Selectivity Index (SI),SARS-CoV-2 [1]; [5],>2.1
same,IC50,SARS-CoV-2 [1]; [6],24.2 µM
Fc1ccc(C(c2ccc(F)cc2)N2CCN(C/C=C/c3ccccc3)CC2)cc1 [Flunarizine],CC50 at 24 h,in vitro; [9],> 100 µM
CN(Cc1cc(Br)cc(Br)c1N)C1CCCCC1 [Bromhexine hydrochloride],CC50 at 24 h,in vitro; [7],> 50 µM
same,Level of intracellular viral RNA,SARS-CoV-2 [3],effectively reduced the intracellular RNA
same,Selectivity Index (SI),SARS-CoV-2 [1]; [5],>3.5
same,IC50,SARS-CoV-2 [1]; [8],14.4 µM
CN1CC2c3ccccc3Oc3ccc(Cl)cc3C2C1 (centres unmarked) [Asenapine],CC50 at 24 h,in vitro; [7],> 50 µM
CC[C@@H](C(=O)[C@@H](C)[C@@H](O)[C@H](C)[C@@H]1O[C@@H]([C@@H](CC)C(=O)O)CC[C@@H]1C)[C@H]1O[C@]2(C=C[C@@H](O)[C@]3(CC[C@@](C)([C@H]4CC[C@](O)(CC)[C@H](C)O4)O3)O2)[C@H](C)C[C@@H]1C [Salinomycin],CC50 at 24 h,in vitro; [9],56.3 µM
same,Selectivity Index (SI),SARS-CoV-2 [1]; [10],97.1
same,IC50,SARS-CoV-2 [1]; [8],0.58 µM
CN1CCC(OC(c2ccccc2)c2ccccc2)CC1 [Diphenylpyraline hydrochloride],CC50 at 24 h,in vitro; [7],> 50 µM
same,Selectivity Index (SI),SARS-CoV-2 [1]; [5],>1.2
same,IC50,SARS-CoV-2 [1]; [6],42.4 µM
CCCCOc1cc(C(=O)NCCN(CC)CC)c2ccccc2n1 [Dibucaine hydrochloride],CC50 at 24 h,in vitro,> 50 µM
same,Selectivity Index (SI),SARS-CoV-2 [1]; [5],>2.3
same,IC50,SARS-CoV-2 [1]; [6],21.6 µM
CCN(CC)Cc1cc(Nc2ccnc3cc(Cl)ccc23)ccc1O [Amodiaquine],CC50 at 24 h,in vitro; [9],> 100 µM
same,CC50 at 24 h,in vitro; [7],> 50 µM
same,Selectivity Index (SI),SARS-CoV-2 [1]; [10],>17.2
same,Selectivity Index (SI),SARS-CoV-2 [1]; [5],>10.9
same,IC50,SARS-CoV-2 [1]; [11],5.8 µM
same,IC50,SARS-CoV-2 [1]; [6],4.6 µM
CC(CN1c2ccccc2Sc2ccccc21)N(C)C (centres unmarked) [Promethazine hydrochloride],CC50 at 24 h,in vitro; [7],> 50 µM
same,Selectivity Index (SI),SARS-CoV-2 [1]; [5],>2.6
same,IC50,SARS-CoV-2 [1]; [6],19.1 µM
COc1ccc(CN2CCN(C(c3ccc(F)cc3)c3ccc(F)cc3)CC2)c(OC)c1OC [Lomerizine],CC50 at 24 h,in vitro,> 100 µM
same,Selectivity Index (SI),SARS-CoV-2 [1]; [10],>7.8
same,IC50,SARS-CoV-2 [1]; [11],12.8 µM
Cc1cccc(CN2CCN(C(c3ccccc3)c3ccc(Cl)cc3)CC2)c1 (centres unmarked) [Meclizine],CC50 at 24 h,in vitro; [9],> 100 µM
same,Selectivity Index (SI),SARS-CoV-2 [1]; [10],>17.9
same,IC50,SARS-CoV-2 [1]; [11],5.6 µM
CN1CCN(CCCN2c3ccccc3Sc3ccc(S(=O)(=O)N(C)C)cc32)CC1 [Thioproperazine dimesylate],CC50,Vero cells,41 µM
same,IC50,SARS-CoV-2 [1]; [4],13.4 µM
"CCCS(=O)(=O)Nc1ccc(F)c(C(=O)c2c[nH]c3ncc(-c4ccc(Cl)cc4)cc23)c1F [Vemurafenib (PLX4032), Vemurafenib]",CC50 at 24 h,in vitro,> 50 µM
same,Selectivity Index (SI),SARS-CoV-2 [1]; [5],>7.1
same,IC50,SARS-CoV-2 [1]; [6],7 µM
CC(C)(C)c1ccc(CN2CCN(C(c3ccccc3)c3ccc(Cl)cc3)CC2)cc1 (centres unmarked) [Buclizine],CC50 at 24 h,in vitro; [9],> 100 µM
same,Selectivity Index (SI),SARS-CoV-2 [1]; [10],>5.1
same,IC50,SARS-CoV-2 [1]; [11],19.6 µM
Cc1ccc(-c2cc(C(F)(F)F)nn2-c2ccc(S(N)(=O)=O)cc2)cc1 [Celecoxib],CC50 at 24 h,in vitro; [9],74.8 µM
same,Selectivity Index (SI),SARS-CoV-2 [1]; [10],4.3
same,IC50,SARS-CoV-2 [1]; [11],17.5 µM
O=C(O)Cc1cc(I)c(Oc2ccc(O)c(I)c2)c(I)c1 [Tiratricol],CC50 at 24 h,in vitro; [7],> 50 µM
same,Selectivity Index (SI),SARS-CoV-2 [1]; [5],>10.9
same,IC50,SARS-CoV-2 [1]; [8],4.6 µM
Cc1ccc(NC(=O)c2ccc(CN3CCN(C)CC3)cc2)cc1Nc1nccc(-c2cccnc2)n1 [Imatinib],CC50 at 24 h,in vitro; [7],> 50 µM
